Molecular target: T1, HMG-CoA reductase (Rattus norvegicus, UniProt P51639)
T1 sequence (P51639 1-887): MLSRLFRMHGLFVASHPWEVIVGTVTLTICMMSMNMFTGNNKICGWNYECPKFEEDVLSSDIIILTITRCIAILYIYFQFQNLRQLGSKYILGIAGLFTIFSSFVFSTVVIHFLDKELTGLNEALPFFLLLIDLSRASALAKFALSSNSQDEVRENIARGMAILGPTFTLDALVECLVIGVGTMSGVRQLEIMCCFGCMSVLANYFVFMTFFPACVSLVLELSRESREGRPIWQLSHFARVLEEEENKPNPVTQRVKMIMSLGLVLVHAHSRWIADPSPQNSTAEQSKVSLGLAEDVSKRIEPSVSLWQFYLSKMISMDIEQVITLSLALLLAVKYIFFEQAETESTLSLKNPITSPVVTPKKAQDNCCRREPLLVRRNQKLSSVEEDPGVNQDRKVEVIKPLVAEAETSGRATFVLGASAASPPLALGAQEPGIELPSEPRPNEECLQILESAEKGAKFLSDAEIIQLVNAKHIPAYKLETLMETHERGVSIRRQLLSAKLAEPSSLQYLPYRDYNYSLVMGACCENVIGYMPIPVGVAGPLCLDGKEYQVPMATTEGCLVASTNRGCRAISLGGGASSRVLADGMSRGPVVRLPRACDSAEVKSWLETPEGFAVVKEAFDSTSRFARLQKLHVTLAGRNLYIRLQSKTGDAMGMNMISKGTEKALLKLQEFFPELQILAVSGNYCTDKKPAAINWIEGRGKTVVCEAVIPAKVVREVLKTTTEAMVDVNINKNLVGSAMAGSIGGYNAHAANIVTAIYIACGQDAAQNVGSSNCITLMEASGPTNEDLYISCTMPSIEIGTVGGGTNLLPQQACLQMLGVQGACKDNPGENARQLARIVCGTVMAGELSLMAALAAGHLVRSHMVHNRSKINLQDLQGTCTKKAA
Experiment: intrinsic HMG-CoA reductase inhibition, in vitro protocol of J. Med. Chem., 1985, 28, page 347
Assay type: biochemical
Details: in vitro protocol described in J. Med. Chem., 1985, 28, page 347
Protocol: The intrinsic HMG-CoA reductase inhibition activity of the claimed compounds is measured in the in vitro protocol described is J. Med. Chem., 1985, 28, page 347.

Work on `CC[C@H](C)C(=O)O[C@H]1C[C@@H](C)CC2=CC(O)[C@H](C)C(CC[C@@H](O)C[C@@H](O)CC(=O)O)=C21` (stereo partly shown) yielded an IC50 of 547 nM.
